# Measurements reported in article PMC5247677 (Scientific Reports, 2017).
# What was measured:
# [1] = molecular target: T1, hNaV1.1 (Homo sapiens, UniProt P35498); test: cell-based; conditions: whole cell electrophysiology, HEK293; pH 7.4, 0.1% BSA; holding −80 mV, test −20 mV; incubation 5–40 min; mean ± SEM, n = 3–9 cells; read-out: pIC50 at hNaV1.1 (converted)
# T1 construct: host or cells: HEK293
# [2] = molecular target: T2, hNaV1.2 (Homo sapiens, UniProt Q99250); test: cell-based; conditions: whole cell electrophysiology, HEK293; pH 7.4, 0.1% BSA; holding −80 mV, test −20 mV; incubation 5–40 min; mean ± SEM, n = 3–9 cells; read-out: pIC50 at hNaV1.2 (converted)
# T2 construct: host or cells: HEK293
# [3] = molecular target: T3, hNaV1.3 (Homo sapiens, UniProt Q9NY46); test: cell-based; conditions: whole cell electrophysiology, HEK293; pH 7.4, 0.1% BSA; holding −80 mV, test −20 mV; incubation 5–40 min; mean ± SEM, n = 3–9 cells; read-out: pIC50 at hNaV1.3 (converted)
# T3 construct: host or cells: HEK293
# [4] = molecular target: T4, hNaV1.4 (Homo sapiens, UniProt P35499); test: cell-based; conditions: whole cell electrophysiology, HEK293; pH 7.4, 0.1% BSA; holding −80 mV, test −20 mV; incubation 5–40 min; mean ± SEM, n = 3–9 cells; read-out: pIC50 at hNaV1.4 (converted)
# T4 construct: host or cells: HEK293
# [5] = molecular target: T5, hNaV1.5 (Homo sapiens, UniProt Q14524); test: cell-based; conditions: whole cell electrophysiology, HEK293; pH 7.4, 0.1% BSA; holding −80 mV, test −20 mV; incubation 5–40 min; mean ± SEM, n = 3–9 cells; read-out: pIC50 at hNaV1.5 (converted)
# T5 construct: host or cells: HEK293
# [6] = molecular target: T6, hNaV1.6 (Homo sapiens, UniProt Q9UQD0); test: cell-based; conditions: whole cell electrophysiology, HEK293; pH 7.4, 0.1% BSA; holding −80 mV, test −20 mV; incubation 5–40 min; mean ± SEM, n = 3–9 cells; read-out: pIC50 at hNaV1.6 (converted)
# T6 construct: host or cells: HEK293
# [7] = molecular target: T7, hNaV1.8 (Homo sapiens, UniProt Q9Y5Y9); test: cell-based; conditions: whole cell patch-clamp
# T7 construct: host or cells: CHO
# [8] = molecular target: T8, hNaV1.9 (Homo sapiens, UniProt Q9UI33); test: cell-based; conditions: PatchXpress, HEK293
# T8 construct: host or cells: HEK293
# From the text: Data were plotted and analyzed using GraphPad Prism, version 6.0. For concentration-response curves, a four-parameter Hill equation with variable Hill coefficient was fitted to the data. […] Data are presented as mean ± SEM.
# [9] = molecular target: T9, rNaV1.7 (Rattus norvegicus, UniProt O08562); test: Whole-cell patch-clamp (QPatch-16), rNaV1.7; type: cell-based; conditions: QPatch-16, HEK293; pH 7.4, 0.1% BSA; holding −80 mV, test −20 mV; mean ± SEM; read-out: pIC50 at rat NaV1.7 (converted)
# T9 construct: expressed in transfected cells; host or cells: HEK293
# [10] = molecular target: T10, mNaV1.7 (Mus musculus, UniProt Q62205); test: Whole-cell patch-clamp (PatchXpress), mNaV1.7; type: cell-based; conditions: HEK293, pH 7.4, holding −120 mV, 20 ms test pulse 0 mV, mean ± SEM, read-out: pIC50 at mouse NaV1.7 (converted)
# T10 construct: host or cells: HEK293
# [11] = molecular target: T11, rKV2.1 (Rattus norvegicus, UniProt P15387); test: Two-electrode voltage-clamp in Xenopus oocytes, wild-type rKV2.1; type: cell-based; conditions: Xenopus laevis oocytes, pH 7.6, 22 °C, 0.1% BSA
# T11 construct: expressed in transfected cells; host or cells: Xenopus laevis oocytes
# [12] = molecular target: α7 nAChR (Homo sapiens, UniProt P36544); test: FLIPR calcium responses in SH-SY5Y cells, α7 nAChR; type: cell-based; conditions: FLIPR Tetra, choline with PNU120596, 0.1–10 μM, 5 min pre-treatment
# [13] = molecular target: α3 nAChR (Homo sapiens, UniProt P32297); test: FLIPR calcium responses in SH-SY5Y cells, α3 nAChR; type: cell-based; conditions: FLIPR Tetra, nicotine 30 μM, 0.1–10 μM, 5 min pre-treatment
# [14] = system: NaV1.7; conditions: 0.3–3 mg/kg i.p., mice
# Protocol: For behavioural assessment we used adult male C57BL/6 J mice or Sprague Dawley rats aged 5–8 weeks. Animals were housed in groups of 2–4 per cage, under 12 h light-dark cycles with standard rodent chow and water ad libitum. All assessments were performed by a blinded investigator unaware of the treatment each animal received. Ethical approval for in vivo experiments in animals was obtained from the University of Queensland, University of Sydney or United Kingdom Home Office animal ethics committee. Experiments involving animals were conducted in accordance with the International Association for the Study of Pain Guidelines for the Use of Animals in Research and the Australian Code of Practice for the Care and Use of Animals for Scientific Purposes, 8th edition (2013).
# [15] = system: motor performance in rats; type: in vivo, rat (Sprague Dawley)
# Protocol: FCA was administered undiluted in a volume of 150 μL by i.pl injection in rats. Behavioural assessment was performed 3 days post-injection of FCA. For intrathecal administration, a polyethylene lumbar catheter was inserted into the intrathecal space between vertebrae L4–L5. […] Mechanical paw withdrawal thresholds were determined using manual von Frey with a series of calibrated filaments 0.4–15.1 g (Stoelting Co., Wood Dale, USA) using the up-down method. Paw withdrawal latency to a thermal stimulus was determined using the Hargreaves test (Ugo Basile, Camerio VA, Italy). Motor co-ordination was assessed using an accelerating rotarod (Ugo Basile). Latency to fall was recorded in seconds, with a maximal cut off of 300 s. At the completion of experiments, catheter placement was checked by injection of lignocaine (2%, 10 μL) and observation of rapid bilateral hind limb paralysis.
# [16] = precluded chronic testing
# T7 sequence (Q9Y5Y9 whole entry): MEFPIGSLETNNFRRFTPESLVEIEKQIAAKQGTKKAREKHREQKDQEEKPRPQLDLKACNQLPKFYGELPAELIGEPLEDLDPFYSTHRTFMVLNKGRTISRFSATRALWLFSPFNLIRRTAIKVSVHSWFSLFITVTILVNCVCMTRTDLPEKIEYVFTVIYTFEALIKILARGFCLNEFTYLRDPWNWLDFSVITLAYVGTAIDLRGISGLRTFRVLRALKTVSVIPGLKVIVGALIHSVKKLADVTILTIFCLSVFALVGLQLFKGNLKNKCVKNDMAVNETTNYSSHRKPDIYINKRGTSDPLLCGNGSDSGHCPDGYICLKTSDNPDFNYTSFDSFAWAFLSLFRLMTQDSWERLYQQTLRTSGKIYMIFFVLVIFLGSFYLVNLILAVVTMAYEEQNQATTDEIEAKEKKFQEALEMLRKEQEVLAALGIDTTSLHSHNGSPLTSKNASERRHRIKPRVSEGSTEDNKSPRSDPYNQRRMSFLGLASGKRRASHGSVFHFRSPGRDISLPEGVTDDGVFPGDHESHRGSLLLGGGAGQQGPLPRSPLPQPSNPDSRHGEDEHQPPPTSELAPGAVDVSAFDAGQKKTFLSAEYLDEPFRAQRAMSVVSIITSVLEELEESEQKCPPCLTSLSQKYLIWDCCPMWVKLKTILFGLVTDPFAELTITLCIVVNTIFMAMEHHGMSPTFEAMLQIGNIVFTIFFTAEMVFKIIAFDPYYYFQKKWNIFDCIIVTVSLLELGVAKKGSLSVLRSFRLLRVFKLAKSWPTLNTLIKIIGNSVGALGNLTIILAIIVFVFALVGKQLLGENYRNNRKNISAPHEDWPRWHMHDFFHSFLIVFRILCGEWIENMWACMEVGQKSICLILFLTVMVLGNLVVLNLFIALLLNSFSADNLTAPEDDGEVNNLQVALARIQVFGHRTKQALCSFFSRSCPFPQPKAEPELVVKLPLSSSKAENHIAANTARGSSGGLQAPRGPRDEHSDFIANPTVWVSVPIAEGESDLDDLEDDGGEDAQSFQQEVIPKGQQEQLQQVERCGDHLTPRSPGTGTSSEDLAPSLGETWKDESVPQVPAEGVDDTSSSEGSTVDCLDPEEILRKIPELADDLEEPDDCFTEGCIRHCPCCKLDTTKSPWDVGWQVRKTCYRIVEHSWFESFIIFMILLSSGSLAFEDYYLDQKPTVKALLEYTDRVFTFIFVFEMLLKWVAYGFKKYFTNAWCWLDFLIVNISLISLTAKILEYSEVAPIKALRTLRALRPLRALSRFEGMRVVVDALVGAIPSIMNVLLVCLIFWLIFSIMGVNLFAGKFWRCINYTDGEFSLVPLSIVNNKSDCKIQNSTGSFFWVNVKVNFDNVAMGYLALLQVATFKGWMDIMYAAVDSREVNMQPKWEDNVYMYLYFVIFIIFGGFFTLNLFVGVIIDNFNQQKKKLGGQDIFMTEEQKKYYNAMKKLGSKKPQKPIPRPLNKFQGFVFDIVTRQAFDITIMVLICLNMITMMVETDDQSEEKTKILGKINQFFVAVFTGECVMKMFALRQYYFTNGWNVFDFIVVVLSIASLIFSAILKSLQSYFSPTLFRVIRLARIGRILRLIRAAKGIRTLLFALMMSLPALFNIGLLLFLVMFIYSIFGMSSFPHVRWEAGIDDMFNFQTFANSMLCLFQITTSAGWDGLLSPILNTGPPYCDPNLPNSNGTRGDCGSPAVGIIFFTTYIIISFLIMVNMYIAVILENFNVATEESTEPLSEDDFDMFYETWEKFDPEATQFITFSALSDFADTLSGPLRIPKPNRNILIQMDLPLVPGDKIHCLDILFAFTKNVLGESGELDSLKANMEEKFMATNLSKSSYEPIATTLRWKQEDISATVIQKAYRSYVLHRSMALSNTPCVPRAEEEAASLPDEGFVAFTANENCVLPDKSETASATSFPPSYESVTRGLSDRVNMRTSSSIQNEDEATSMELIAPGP
# Chain of α3 nAChR (P32297 32-505): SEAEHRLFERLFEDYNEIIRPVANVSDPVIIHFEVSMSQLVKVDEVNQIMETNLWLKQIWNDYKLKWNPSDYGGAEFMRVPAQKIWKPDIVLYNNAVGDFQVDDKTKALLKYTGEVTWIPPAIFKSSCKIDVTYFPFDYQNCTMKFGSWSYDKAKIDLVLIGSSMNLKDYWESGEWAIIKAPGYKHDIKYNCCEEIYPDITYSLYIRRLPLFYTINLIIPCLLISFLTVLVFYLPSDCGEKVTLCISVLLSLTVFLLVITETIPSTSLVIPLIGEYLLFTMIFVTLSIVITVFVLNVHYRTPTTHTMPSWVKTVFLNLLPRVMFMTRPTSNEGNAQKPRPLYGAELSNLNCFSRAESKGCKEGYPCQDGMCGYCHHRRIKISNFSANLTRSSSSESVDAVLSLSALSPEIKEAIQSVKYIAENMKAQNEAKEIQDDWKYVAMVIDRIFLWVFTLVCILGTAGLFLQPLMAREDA
# T2 sequence (Q99250 whole entry): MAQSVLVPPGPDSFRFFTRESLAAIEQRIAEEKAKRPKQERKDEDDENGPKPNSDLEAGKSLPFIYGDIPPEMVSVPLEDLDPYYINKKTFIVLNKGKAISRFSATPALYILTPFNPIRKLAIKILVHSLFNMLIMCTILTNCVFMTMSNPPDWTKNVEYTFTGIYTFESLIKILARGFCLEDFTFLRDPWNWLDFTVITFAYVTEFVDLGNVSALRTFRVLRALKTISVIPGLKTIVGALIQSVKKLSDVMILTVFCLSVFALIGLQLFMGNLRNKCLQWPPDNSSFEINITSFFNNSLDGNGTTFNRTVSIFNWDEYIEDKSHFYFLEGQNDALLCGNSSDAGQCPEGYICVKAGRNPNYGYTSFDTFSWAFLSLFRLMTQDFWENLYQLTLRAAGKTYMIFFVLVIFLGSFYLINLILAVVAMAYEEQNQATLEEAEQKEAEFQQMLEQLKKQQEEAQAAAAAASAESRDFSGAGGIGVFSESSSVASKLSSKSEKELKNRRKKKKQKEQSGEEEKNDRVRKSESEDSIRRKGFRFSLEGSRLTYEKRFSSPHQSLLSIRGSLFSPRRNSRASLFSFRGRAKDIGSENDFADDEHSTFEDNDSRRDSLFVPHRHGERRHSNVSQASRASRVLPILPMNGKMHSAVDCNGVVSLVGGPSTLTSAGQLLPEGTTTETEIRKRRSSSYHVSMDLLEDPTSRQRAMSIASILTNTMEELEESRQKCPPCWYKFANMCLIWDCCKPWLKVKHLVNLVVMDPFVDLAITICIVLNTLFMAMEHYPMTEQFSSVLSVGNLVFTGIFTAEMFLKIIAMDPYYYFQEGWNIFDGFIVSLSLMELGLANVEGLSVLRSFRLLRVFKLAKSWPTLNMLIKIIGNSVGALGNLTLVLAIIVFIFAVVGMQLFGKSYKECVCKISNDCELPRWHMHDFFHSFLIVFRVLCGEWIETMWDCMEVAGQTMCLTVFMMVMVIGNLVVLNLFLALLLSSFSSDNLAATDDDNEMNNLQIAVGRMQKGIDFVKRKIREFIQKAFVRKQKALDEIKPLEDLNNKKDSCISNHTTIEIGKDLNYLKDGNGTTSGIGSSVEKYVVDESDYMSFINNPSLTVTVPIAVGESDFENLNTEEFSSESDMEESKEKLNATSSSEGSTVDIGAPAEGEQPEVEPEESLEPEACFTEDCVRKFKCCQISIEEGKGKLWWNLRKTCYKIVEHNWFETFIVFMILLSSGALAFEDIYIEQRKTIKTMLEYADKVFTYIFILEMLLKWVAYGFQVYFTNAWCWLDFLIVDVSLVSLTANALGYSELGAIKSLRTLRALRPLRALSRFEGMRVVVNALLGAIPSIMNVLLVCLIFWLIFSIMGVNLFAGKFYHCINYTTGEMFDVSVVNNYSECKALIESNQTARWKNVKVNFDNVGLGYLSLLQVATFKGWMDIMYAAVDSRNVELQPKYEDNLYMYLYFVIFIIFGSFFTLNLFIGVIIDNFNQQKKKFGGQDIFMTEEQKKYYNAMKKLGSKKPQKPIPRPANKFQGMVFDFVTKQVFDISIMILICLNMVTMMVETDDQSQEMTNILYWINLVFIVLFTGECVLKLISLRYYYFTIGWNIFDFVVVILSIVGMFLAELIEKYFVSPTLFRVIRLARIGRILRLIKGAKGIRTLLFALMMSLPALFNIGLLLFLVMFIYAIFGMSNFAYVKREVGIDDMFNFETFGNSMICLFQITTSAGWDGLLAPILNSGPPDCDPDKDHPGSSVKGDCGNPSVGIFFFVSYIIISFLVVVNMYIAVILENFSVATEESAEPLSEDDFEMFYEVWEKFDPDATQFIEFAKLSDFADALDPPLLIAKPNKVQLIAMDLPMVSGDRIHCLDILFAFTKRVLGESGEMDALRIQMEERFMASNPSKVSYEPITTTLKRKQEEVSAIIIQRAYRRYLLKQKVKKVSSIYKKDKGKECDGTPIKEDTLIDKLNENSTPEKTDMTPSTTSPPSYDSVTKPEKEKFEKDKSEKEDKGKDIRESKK
# Chain of α7 nAChR (P36544 23-502): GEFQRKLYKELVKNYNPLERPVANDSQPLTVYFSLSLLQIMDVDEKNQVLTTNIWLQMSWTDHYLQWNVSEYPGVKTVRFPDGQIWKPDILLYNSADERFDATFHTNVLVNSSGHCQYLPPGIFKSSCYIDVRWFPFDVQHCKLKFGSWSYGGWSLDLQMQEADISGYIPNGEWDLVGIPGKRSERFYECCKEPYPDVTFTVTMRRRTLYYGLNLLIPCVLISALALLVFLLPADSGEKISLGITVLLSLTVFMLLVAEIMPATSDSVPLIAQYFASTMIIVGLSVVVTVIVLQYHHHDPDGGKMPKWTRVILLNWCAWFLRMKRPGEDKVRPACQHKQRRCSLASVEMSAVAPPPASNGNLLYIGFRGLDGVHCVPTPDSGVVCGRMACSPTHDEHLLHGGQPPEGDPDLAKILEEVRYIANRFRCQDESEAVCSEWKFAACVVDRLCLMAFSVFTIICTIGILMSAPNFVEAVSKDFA
smiles,measurement,setting,value
"CSCC[C@@H]1NC(=O)[C@H](Cc2ccc(O)cc2)NC(=O)[C@H](CCCNC(=N)N)NC(=O)[C@@H](NC(=O)[C@@H](N)CC(=O)O)CSSC[C@@H]2NC(=O)[C@@H]3CSSC[C@@H](C(=O)N[C@@H](C)C(=O)N[C@@H](Cc4c[nH]c5ccccc45)C(=O)N[C@@H](CC(=O)O)C(=O)N[C@@H](Cc4ccccc4)C(=O)N[C@H](C(=O)N[C@@H](Cc4ccccc4)C(=O)N[C@H](C(=O)O)[C@@H](C)O)[C@@H](C)O)NC(=O)[C@H](Cc4ccc(O)cc4)NC(=O)[C@H](CCCCN)NC(=O)[C@H](CCSC)NC(=O)[C@H](CCCCN)NC(=O)[C@H](CCCNC(=N)N)NC(=O)[C@H](CCCCN)NC(=O)[C@H](CSSC[C@H](NC(=O)[C@H](CC(=O)O)NC(=O)CNC(=O)[C@H](Cc4ccccc4)NC1=O)C(=O)N[C@@H](CCC(=O)O)C(=O)N[C@@H](CCCCN)C(=O)N[C@@H](CC(=O)O)C(=O)N[C@@H](CCC(=O)O)C(=O)N[C@@H](CC(=O)O)C(=O)N3)NC(=O)CNC(=O)[C@H](CC(C)C)NC(=O)[C@H](Cc1cnc[nH]1)NC(=O)[C@H](CCCCN)NC2=O [Pn3a, μ-theraphotoxin-Pn3a]",IC50,[1],0.0372 µM
same,IC50,[2],0.123 µM
same,IC50,[3],0.209 µM
same,IC50,[4],0.145 µM
same,IC50,[5],0.794 µM
same,IC50,[6],0.129 µM
same,IC50,[7],49.9 µM
same,IC50,[8],2.43 µM
same,IC50,[9],0.00148 µM
same,IC50,[10],0.00437 µM
same,IC50,[11],> 0.3 µM
same,IC50,[12],> 10 µM
same,IC50,[13],> 10 µM
same,adverse effects,[14],absence of adverse effects
same,Rotarod % Baseline,"[15]; 0.3 nmoles intrathecal, control 88 ± 7%, P > 0.05, unpaired t-test, n = 4–9",91 ± 11%
same,motor effect,"[15]; 1 nmole intrathecal, rats, data not shown",motor impairment was observed
same,pharmacokinetics,[16],poor pharmacokinetics
